In patent publication US20230095836A1, “SUBSTITUTED 5,6-DIPHENYL-3(2H)-PYRIDAZINONES FOR USE AS FUNGICIDES” (FMC Corporation, priority 2020, published 2023):

What was measured:
Assay type in all cases: in vivo
[1] = system: Puccinia recondita f. sp. tritici; assay: Test B: test solution sprayed on wheat seedlings, inoculated next day with Puccinia recondita f. sp. tritici (wheat leaf rust); disease rating (100 = 100% disease control, 0 = no control; dash = not tested)
Source text: The resulting test suspensions were then used in Tests A-F. The test solution was sprayed to the point of run-off on wheat seedlings. […] A rating of 100 indicates 100% disease control and a rating of 0 indicates no disease control (relative to the controls). A dash (—) indicates the compound was not tested.

[2] = system: Alternaria solani; assay: Test F: test suspension sprayed on tomato seedlings, inoculated next day with Alternaria solani (tomato early blight); visual disease rating (100 = 100% disease control, 0 = no control; dash = not tested)
Summary of the method: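 Tomato seedlings sprayed to run-off with test suspension, inoculated next day with A. solani spores, held saturated at 27° C. for 48 h, then 20° C. for 3 days. Disease visually rated as % control relative to untreated controls.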

[3] = system: Botrytis cinerea; assay: Test E: test suspension sprayed on tomato seedlings, inoculated next day with Botrytis cinerea (tomato Botrytis); visual disease rating (100 = 100% disease control, 0 = no control; dash = not tested)
Summary of the method: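 Tomato seedlings were sprayed to run-off and inoculated next day with Botrytis cinerea spores. They were held 48 h at 20° C in saturated humidity, then 3 days at 24° C. Disease control was rated visually against controls (100 = full, 0 = none).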

[4] = system: Phakopsora pachyrhizi; assay: Test D: test solution sprayed on soybean seedlings, inoculated next day with Phakopsora pachyrhizi (Asian soybean rust); visual disease rating (100 = 100% disease control, 0 = no control; dash = not tested)
Summary of the method: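 Compounds predissolved in acetone (3% of final volume), suspended at ppm concentrations in 50/50 acetone/water with 250 ppm PEG400, sprayed to run-off on soybean seedlings. Inoculated next day with spores, 24 h saturated atmosphere at 22 °C, then 8 days growth chamber at 22 °C; visual rating, 100 = full control.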

[5] = system: Blumeria graminis f. sp. tritici; assay: Test C: test suspension sprayed on wheat seedlings, inoculated next day with Blumeria graminis f. sp. tritici (wheat powdery mildew); visual disease rating (100 = 100% disease control, 0 = no control; dash = not tested)
Summary of the method: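 Wheat seedlings were sprayed to run-off with test suspension, then dusted next day with Blumeria graminis f. sp. tritici spores. After 8 days at 20 °C in a growth chamber, disease was rated visually as percent control relative to untreated controls.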

[6] = system: Zymoseptoria tritici; assay: Test A: test solution sprayed on wheat seedlings, inoculated next day with Zymoseptoria tritici (wheat leaf blotch); disease rating (100 = 100% disease control, 0 = no control; dash = not tested)
Summary of the method: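 Wheat seedlings sprayed to run-off with test solution, inoculated next day with Z. tritici spores, held 48 h at 24° C in saturated atmosphere, then 17 days at 20° C before rating. Scores are % disease control relative to controls (100 = full control, 0 = none).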

| SMILES | Test B disease control rating ([1]; 50 ppm) [%] | Test F disease control rating ([2]; 50 ppm) [%] | Test E disease control rating ([3]; 50 ppm) [%] | Test D disease control rating ([4]; 50 ppm) [%] | Test C disease control rating ([5]; 50 ppm) [%] | Test A disease control rating ([6]; 50 ppm) [%] | further results |
| --- | --- | --- | --- | --- | --- | --- | --- |
| COc1c(-c2ccc(F)cc2Cl)c(-c2ccc(F)cc2Br)nn(C)c1=O [Compound 162] | 89 | 16 | 99 | 13 | 98 | 100 |  |
| COc1ccc(-c2nn(C)c(=O)c(Cl)c2-c2ccc(F)cc2Cl)c(F)c1 [Compound 163] | 100 | 99 | 100 | 77 | 78 | 100 |  |
| COc1cc(F)c(Cl)c(-c2nn(C)c(=O)c(OC)c2-c2ccc(F)cc2Cl)c1 [Compound 164] | 100 | 100 | 99 | 100 | 99 | 100 |  |
| COc1cc(F)c(Br)c(-c2nn(C)c(=O)c(OC)c2-c2ccc(F)cc2Cl)c1 [Compound 165] | 100 | 100 | 95 | 92 | 99 | 100 |  |
| COc1ccc(-c2nn(C)c(=O)c(OC)c2-c2ccc(F)cc2Cl)c(F)c1 [Compound 166] | 91 | 67 | 95 | 0 | 79 | 100 |  |
| CCc1c(-c2ccc(F)cc2Cl)c(-c2ccc(F)cc2Cl)nn(C)c1=O [Compound 167] | 100 | 100 | 86 | 0 | 100 | 100 |  |
| Cn1nc(-c2ccc(F)cc2Cl)c(-c2ccc(F)cc2Cl)c(CO)c1=O [Compound 168] | 96 | 0 | 81 | 0 | 72 | 100 |  |
| COc1cc(OC)c(Cl)c(-c2nn(C)c(=O)c(C)c2-c2ccc(F)cc2Cl)c1Cl [Compound 169] | 68 | 0 | 93 | 0 | 43 | 37 |  |
| Cn1nc(-c2ccc(F)cc2Cl)c(-c2ccc(F)cc2Cl)c(CCl)c1=O [Compound 170] | 89 | 80 | 51 | 0 | 76 | 99 |  |
| Cn1nc(-c2ccc(F)cc2Cl)c(-c2ccc(F)cc2Cl)c(CF)c1=O [Compound 171] | 99 | 96 | 100 | 0 | 99 | 99 |  |
| Cn1nc(-c2ccc(F)cc2Cl)c(-c2ccc(F)cc2Cl)c(CO)c1=O [Compound 172] |  |  |  |  |  |  | Test B disease control rating ([1]; 250 ppm): 92%; Test F disease control rating ([2]; 250 ppm): 0%; Test E disease control rating ([3]; 250 ppm): 83%; Test D disease control rating ([4]; 250 ppm): 78%; Test C disease control rating ([5]; 250 ppm): 87%; Test A disease control rating ([6]; 250 ppm): 79% |
| CCOc1ccc(Cl)c(-c2nn(C)c(=O)c(C)c2-c2ccc(F)cc2Cl)c1 [Compound 175] | 100 | 100 | 98 | 100 | 99 | 100 |  |
| CON(C)C(=O)c1c(-c2ccc(F)cc2Cl)c(-c2ccc(F)cc2Cl)nn(C)c1=O [Compound 176] |  |  |  |  |  |  | Test B disease control rating ([1]; 250 ppm): 80%; Test F disease control rating ([2]; 250 ppm): 0%; Test E disease control rating ([3]; 250 ppm): 0%; Test D disease control rating ([4]; 250 ppm): 0%; Test C disease control rating ([5]; 250 ppm): 0%; Test A disease control rating ([6]; 250 ppm): 4% |
| Cn1nc(-c2ccc(F)cc2Cl)c(-c2ccc(F)cc2Cl)c(CC#N)c1=O [Compound 177] | 80 | 0 | 0 | 0 | 0 | 88 |  |
| CCc1c(-c2c(F)cccc2F)c(-c2cccc(OC)c2Cl)nn(C)c1=O [Compound 178] | 100 | 100 | 93 | 100 | 100 | 100 |  |
| CCc1c(-c2c(F)cccc2F)c(-c2cc(OC)ccc2Cl)nn(C)c1=O [Compound 179, 6-(2-chloro-5-methoxyphenyl)-5-(2,6-difluorophenyl)-4-ethyl-2-methyl-3(2H)-pyridazinone] |  |  |  |  |  |  | pest or weed control at 50 ppm ([1]; 50 ppm): 100%; pest or weed control at 50 ppm ([2]; 50 ppm): 100%; pest or weed control at 50 ppm ([3]; 50 ppm): 94%; pest or weed control at 50 ppm ([4]; 50 ppm): 100%; pest or weed control at 50 ppm ([5]; 50 ppm): 100%; pest or weed control at 50 ppm ([6]; 50 ppm): 100% |
| CCc1c(-c2c(F)cccc2F)c(-c2cc(OC)cc(F)c2Cl)nn(C)c1=O [Compound 180] | 100 | 100 | 99 | 100 | 100 | 100 |  |
| CCc1c(-c2c(F)cccc2F)c(-c2cc(OC)cc(F)c2Br)nn(C)c1=O [Compound 181] | 100 | 100 | 94 | 100 | 100 | 98 |  |
| Cn1nc(-c2ccccc2Cl)c(-c2ccc(F)cc2Cl)c(O)c1=O [Compound 182] | 0 | 0 | 0 | 0 | 0 | 0 |  |
| COc1ccc(Cl)c(-c2nn(C)c(=O)c(Cl)c2-c2ccccc2F)c1 [Compound 183] | 100 | 100 | 98 | 94 | 96 | 100 |  |
| COc1ccc(Cl)c(-c2nn(C)c(=O)c(Cl)c2-c2ccccc2Cl)c1 [Compound 184] | 100 | 99 | 96 | 99 | 96 | 100 |  |
| COc1ccc(Cl)c(-c2nn(C)c(=O)c(Cl)c2-c2ccc(F)cc2F)c1 [Compound 185] | 100 | 100 | 96 | 100 | 99 | 100 |  |
| COc1ccc(Cl)c(-c2nn(C)c(=O)c(Cl)c2-c2ccc(C#N)cc2Cl)c1 [Compound 186] | 100 | 100 | 90 | 99 | 97 | 99 |  |
| Cn1nc(-c2ccccc2)c(-c2c(F)cccc2F)cc1=O [Compound 191] |  |  |  |  |  |  | Test B disease control rating ([1]; 250 ppm): 9%; Test F disease control rating ([2]; 250 ppm): 0%; Test E disease control rating ([3]; 250 ppm): 99%; Test D disease control rating ([4]; 250 ppm): 0%; Test C disease control rating ([5]; 250 ppm): 99%; Test A disease control rating ([6]; 250 ppm): 72% |
| COc1ccc(-c2nn(C)c(=O)cc2-c2c(F)cccc2F)c(F)c1 [Compound 192] |  |  |  |  |  |  | Test B disease control rating ([1]; 250 ppm): 80%; Test F disease control rating ([2]; 250 ppm): 0%; Test E disease control rating ([3]; 250 ppm): 93%; Test D disease control rating ([4]; 250 ppm): 91%; Test C disease control rating ([5]; 250 ppm): 84%; Test A disease control rating ([6]; 250 ppm): 38% |
| Cn1nc(-c2ccccc2)c(-c2c(F)cccc2F)c(Cl)c1=O [Compound 193] |  |  |  |  |  |  | Test B disease control rating ([1]; 250 ppm): 100%; Test F disease control rating ([2]; 250 ppm): 99%; Test E disease control rating ([3]; 250 ppm): 100%; Test D disease control rating ([4]; 250 ppm): 61%; Test C disease control rating ([5]; 250 ppm): 100%; Test A disease control rating ([6]; 250 ppm): 97% |
| COc1cc(OC)c(Cl)c(-c2nn(C)c(=O)c(C)c2-c2c(F)cccc2F)c1 [Compound 194, 6-(2-chloro-3,5-dimethoxyphenyl)-5-(2,6-difluorophenyl)-2,4-dimethyl-3(2H)-pyridazinone] |  |  |  |  |  |  | pest or weed control at 50 ppm ([1]; 50 ppm): 100%; pest or weed control at 50 ppm ([2]; 50 ppm): 99%; pest or weed control at 50 ppm ([3]; 50 ppm): 100%; pest or weed control at 50 ppm ([4]; 50 ppm): 100%; pest or weed control at 50 ppm ([5]; 50 ppm): 100%; pest or weed control at 50 ppm ([6]; 50 ppm): 100% |
